The structures appear in SMILES notation.

One may read the IC50 as the midpoint of a concentration-inhibition curve.

Assay [1] relates to Phosphorylation of ERK1/2 in A549 cells. Description: Phospho-ERK1/2 MSD assay in A549 cells. In kind it is cell-based. The following applies: Homo sapiens, A549, 2 h, read-out: p-ERK IC50 (2 h, A549; μM), 2 h compound treatment, A549 cells, EGF stimulated. The method, boiled down: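 Phospho-ERK1/2 was quantified by MSD immunoassay in RIPA lysates of MIA PaCa-2 or A549 cells. Before lysis, cells received 10 ng/mL EGF for 10 min after 2 or 4 h exposure at 37° C. to a compound concentration series.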

The target of assay [2] is GDP-bound KRAS protein (aa 1-169), containing both G12C and C118A amino acid substitutions (Homo sapiens (Human), UniProt P01116, C118A/G12C). The experiment in a line: Coupled nucleotide exchange assay (SOS-mediated nucleotide exchange, AlphaScreen). In kind it is biochemical. The note with it: read-out: Coupled exchange IC50 (5 min; μM); 5 min compound pre-incubation. (Bead proximity is the source of the signal in Alpha formats.)
Sequence of GDP-bound KRAS protein (aa 1-169), containing both G12C and C118A amino acid substitutions (P01116 other isoform, or with tags, fused parts or gaps G12C/C118A): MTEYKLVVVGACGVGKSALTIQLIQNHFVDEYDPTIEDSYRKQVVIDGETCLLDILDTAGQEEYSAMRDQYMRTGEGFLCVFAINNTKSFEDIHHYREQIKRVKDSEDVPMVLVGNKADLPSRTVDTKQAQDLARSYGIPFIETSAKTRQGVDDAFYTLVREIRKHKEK

In assay [3] the test system is Phosphorylation of ERK1/2 in MIA PaCa-2 cells. Description: Phospho-ERK1/2 MSD assay in MIA PaCa-2 cells. In kind it is cell-based. The following applies: Homo sapiens, MIA PaCa-2, 2 h, read-out: p-ERK IC50 (2 h, MiaPaCa-2; μM), 2 h compound treatment, MIA PaCa-2 cells, EGF stimulated. The method, boiled down: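 Phospho-ERK1/2 measured by MSD electrochemiluminescence kit in RIPA lysates of MIA PaCa-2 cells. Cells were treated with compound titrations for 2 or 4 h at 37 °C, 5% CO2, followed by a 10 min pulse of 10 ng/mL EGF.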

Turning to `C#Cc1cccc(-c2nc3c(cc2Cl)c(N2C[C@@H](C)N(C(=O)C=C)C[C@@H]2C)nc(=O)n3-c2c(C)ccnc2C(C)C)c1` (atropisomer, axis not shown; (M)) [Example 92-48, (M)-6-Chloro-4-[(2S,5R)-2,5-dimethyl-4-prop-2-enoyl-piperazin-1-yl]-7-(3-ethynylphenyl)-1-(2-isopropyl-4-methyl-3-pyridyl)pyrido [2,3-d]pyrimidin-2-one], the figures for the half-maximal inhibitory concentration (IC50) in assay [1], in assay [2] and in assay [3] were over 7.5 µM, 0.247 µM and 0.365 µM, respectively.
Take `C=CC(=O)N1C[C@H](C)N(c2nc(=O)n(-c3c(C)ccnc3C(C)C)c3nc(-c4cccc(C#CC)c4)c(Cl)cc23)C[C@H]1C` (atropisomer, axis not shown; (M)) [Example 92-49, (M)-6-Chloro-4-[(2S,5R)-2,5-dimethyl-4-prop-2-enoyl-piperazin-1-yl]-1-(2-isopropyl-4-methyl-3-pyridyl)-7-(3-prop-1-ynylphenyl) pyrido[2,3-d]pyrimidin-2-one]: the values for the half-inhibitory concentration (IC50) in assay [1], in assay [2] and in assay [3] were over 7.5 µM, 0.123 µM and 0.328 µM, respectively.
As for `C=CC(=O)N1C[C@H](C)N(c2nc(=O)n(-c3c(C)ccnc3C(C)C)c3nc(-c4ccccc4Cl)c(Cl)cc23)C[C@H]1C` (atropisomer, axis not shown; (M)) [Example 92-51, (M)-6-Chloro-7-(2-chlorophenyl)-4-[(2S,5R)-2,5-dimethyl-4-prop-2-enoyl-piperazin-1-yl]-1-(2-isopropyl-4-methyl-3-pyridyl)pyrido [2,3-d]pyrimidin-2-one], the IC50 was over 7.5 µM in assay [1], 0.033 µM in assay [2] and 0.03 µM in assay [3].
On the same counts, the results for `C=CC(=O)N1C[C@H](C)N(c2nc(=O)n(-c3c(C)ccnc3C(C)C)c3nc(-c4cccc(F)c4)c(Cl)cc23)C[C@H]1C` (atropisomer, axis not shown; (M)) [Example 92-52, (M)-6-Chloro-4-[(2S,5R)-2,5-dimethyl-4-prop-2-enoyl-piperazin-1-yl]-7-(3-fluorophenyl)-1-(2-isopropyl-4-methyl-3-pyridyl)pyrido [2,3-d]pyrimidin-2-one] are over 7.5 µM, 0.161 µM and 0.196 µM.
On the same counts, the results for `C=CC(=O)N1C[C@H](C)N(c2nc(=O)n(-c3c(C)ccnc3C(C)C)c3nc(-c4cccc(C)c4)c(Cl)cc23)C[C@H]1C` (atropisomer, axis not shown; (M)) [Example 92-53, (M)-6-Chloro-4-[(2S,5R)-2,5-dimethyl-4-prop-2-enoyl-piperazin-1-yl]-1-(2-isopropyl-4-methyl-3-pyridyl)-7-(m-tolyl)pyrido[2,3-d]pyrimidin-2-one] are over 7.5 µM, 0.135 µM and 0.309 µM.
As for `C=CC(=O)N1C[C@H](C)N(c2nc(=O)n(-c3c(C)ccnc3C(C)C)c3nc(-c4cccc(Cl)c4)c(Cl)cc23)C[C@H]1C` (atropisomer, axis not shown; (M)) [Example 92-54, (M)-6-Chloro-7-(3-chlorophenyl)-4-[(2S,5R)-2,5-dimethyl-4-prop-2-enoyl-piperazin-1-yl]-1-(2-isopropyl-4-methyl-3-pyridyl)pyrido [2,3-d]pyrimidin-2-one], the figures for the half-maximal inhibitory concentration (IC50) in assay [1], in assay [2] and in assay [3] were over 7.5 µM, 0.169 µM and 0.217 µM, respectively.
As for `C=CC(=O)N1C[C@H](C)N(c2nc(=O)n(-c3c(C)ccnc3C(C)C)c3nc(-c4ccccc4CC)c(Cl)cc23)C[C@H]1C` (atropisomer, axis not shown; (M)) [Example 92-55, (M)-6-Chloro-4-[(2S,5R)-2,5-dimethyl-4-prop-2-enoyl-piperazin-1-yl]-7-(2-ethylphenyl)-1-(2-isopropyl-4-methyl-3-pyridyl)pyrido [2,3-d]pyrimidin-2-one], the IC50 was over 7.5 µM in assay [1], 0.021 µM in assay [2] and 0.018 µM in assay [3].
`C=CC(=O)N1C[C@H](C)N(c2nc(=O)n(-c3c(C)ccnc3C(C)C)c3nc(-c4ccc(F)cc4)c(Cl)cc23)C[C@H]1C` (atropisomer, axis not shown; (M)) [Example 92-57, (M)-6-Chloro-4-[(2S,5R)-2,5-dimethyl-4-prop-2-enoyl-piperazin-1-yl]-7-(4-fluorophenyl)-1-(2-isopropyl-4-methyl-3-pyridyl)pyrido [2,3-d]pyrimidin-2-one]: the half-maximal inhibitory concentration (IC50) in assay [1] was over 7.5 µM; in assay [2], 0.126 µM; in assay [3], 0.126 µM.
Regarding `C=CC(=O)N1C[C@H](C)N(c2nc(=O)n(-c3c(C)ccnc3C(C)C)c3nc(-c4cccc(C)c4F)c(Cl)cc23)C[C@H]1C` (atropisomer, axis not shown; (M)) [Example 92-58, (M)-6-Chloro-4-[(2S,5R)-2,5-dimethyl-4-prop-2-enoyl-piperazin-1-yl]-7-(2-fluoro-3-methyl-phenyl)-1-(2-isopropyl-4-methyl-3-pyridyl)pyrido [2,3-d]pyrimidin-2-one], the half-inhibitory concentration (IC50) in assay [1] was over 7.5 µM; in assay [2], 0.074 µM; in assay [3], 0.023 µM.
For the compound `C=CC(=O)N1C[C@H](C)N(c2nc(=O)n(-c3c(C)ccnc3C(C)C)c3nc(-c4cccc(F)c4C)c(Cl)cc23)C[C@H]1C` (atropisomer, axis not shown; (M)) [Example 92-59, (M)-6-Chloro-4-[(2S,5R)-2,5-dimethyl-4-prop-2-enoyl-piperazin-1-yl]-7-(3-fluoro-2-methyl-phenyl)-1-(2-isopropyl-4-methyl-3-pyridyl)pyrido [2,3-d]pyrimidin-2-one], the results for the IC50 in assay [1], in assay [2] and in assay [3] were over 7.5 µM, 0.028 µM and 0.034 µM, respectively.
On to `C=CC(=O)N1C[C@H](C)N(c2nc(=O)n(-c3c(C)ccnc3C(C)C)c3nc(-c4cc(C)ccc4F)c(Cl)cc23)C[C@H]1C` (atropisomer, axis not shown; (M)) [Example 92-60, (M)-6-Chloro-4-[(2S,5R)-2,5-dimethyl-4-prop-2-enoyl-piperazin-1-yl]-7-(2-fluoro-5-methyl-phenyl)-1-(2-isopropyl-4-methyl-3 pyridyl)pyrido [2,3-d]pyrimidin-2-one], for which the IC50 is over 7.5 µM in assay [1], 0.02 µM in assay [2] and 0.018 µM in assay [3].
Taken in the same sequence, the figures for `C=CC(=O)N1C[C@H](C)N(c2nc(=O)n(-c3c(C)ccnc3C(C)C)c3nc(-c4ccc(F)cc4F)c(Cl)cc23)C[C@H]1C` (atropisomer, axis not shown; (M)) [Example 92-61, (M)-6-Chloro-7-(2,4-difluorophenyl)-4-[(2S,5R)-2,5-dimethyl-4-prop-2-enoyl-piperazin-1-yl]-1-(2-isopropyl-4-methyl-3-pyridyl)pyrido [2,3-d]pyrimidin-2-one] were over 7.5 µM, 0.008 µM and 0.027 µM.
On the same counts, the results for `C=CC(=O)N1C[C@H](C)N(c2nc(=O)n(-c3c(C)ccnc3C(C)C)c3nc(-c4cccc(F)c4OC)c(Cl)cc23)C[C@H]1C` (atropisomer, axis not shown; (M)) [Example 92-62, (M)-6-Chloro-4-[(2S,5R)-2,5-dimethyl-4-prop-2-enoyl-piperazin-1-yl]-7-(3-fluoro-2-methoxy-phenyl)-1-(2-isopropyl-4-methyl-3-pyridyl)pyrido [2,3-d]pyrimidin-2-one] are over 7.5 µM, 0.01 µM and 0.075 µM.
With `C=CC(=O)N1C[C@H](C)N(c2nc(=O)n(-c3c(C)ccnc3C(C)C)c3nc(-c4cccc(F)c4C(F)(F)F)c(Cl)cc23)C[C@H]1C` (atropisomer, axis not shown; (M)) [Example 92-63, (M)-6-Chloro-4-[(2S,5R)-2,5-dimethyl-4-prop-2-enoyl-piperazin-1-yl]-7-[3-fluoro-2-(trifluoromethyl)phenyl]-1-(2-isopropyl-4-methyl-3-pyridyl)pyrido [2,3-d]pyrimidin-2-one], the IC50 in assay [1] was over 7.5 µM; in assay [2] it was 0.039 µM; in assay [3] it was 0.052 µM.
On to `C=CC(=O)N1C[C@H](C)N(c2nc(=O)n(-c3c(C)ccnc3C(C)C)c3nc(-c4cccc(F)c4Cl)c(Cl)cc23)C[C@H]1C` (atropisomer, axis not shown; (M)) [Example 92-64, (M)-6-Chloro-7-(2-chloro-3-fluoro-phenyl)-4-[(2S,5R)-2,5-dimethyl-4-prop-2-enoyl-piperazin-1-yl]-1-(2-isopropyl-4-methyl-3-pyridyl)pyrido [2,3-d]pyrimidin-2-one], for which the concentration for half-maximal inhibition (IC50) in assay [1] is over 7.5 µM; in assay [2] it was 0.039 µM; in assay [3], 0.044 µM.
Taken in the same sequence, the figures for `C=CC(=O)N1C[C@H](C)N(c2nc(=O)n(-c3c(C)ccnc3C(C)C)c3nc(-c4cc(F)ccc4F)c(Cl)cc23)C[C@H]1C` (atropisomer, axis not shown; (M)) [Example 92-65, (M)-6-Chloro-7-(2,5-difluorophenyl)-4-[(2S,5R)-2,5-dimethyl-4-prop-2-enoyl-piperazin-1-yl]-1-(2-isopropyl-4-methyl-3-pyridyl)pyrido [2,3-d]pyrimidin-2-one] were over 7.5 µM, 0.066 µM and 0.046 µM.
